Laboratory results: ChEMBL document CHEMBL1201862, “PubChem BioAssay data set” (2004)
Activity calls are given as the source filed them.

Key:
[1] = biological target: Glyceraldehyde-3-phosphate dehydrogenase (Homo sapiens, UniProt P04406)
[2] = biological target: T1, Alkaline phosphatase, tissue-nonspecific isozyme (Homo sapiens, UniProt P05186); assay: potency against alkaline phosphatase TNAP – biochemical, luminescent, dose response, SAR follow-up (AID 1056)
T1 sequence (P05186 whole entry): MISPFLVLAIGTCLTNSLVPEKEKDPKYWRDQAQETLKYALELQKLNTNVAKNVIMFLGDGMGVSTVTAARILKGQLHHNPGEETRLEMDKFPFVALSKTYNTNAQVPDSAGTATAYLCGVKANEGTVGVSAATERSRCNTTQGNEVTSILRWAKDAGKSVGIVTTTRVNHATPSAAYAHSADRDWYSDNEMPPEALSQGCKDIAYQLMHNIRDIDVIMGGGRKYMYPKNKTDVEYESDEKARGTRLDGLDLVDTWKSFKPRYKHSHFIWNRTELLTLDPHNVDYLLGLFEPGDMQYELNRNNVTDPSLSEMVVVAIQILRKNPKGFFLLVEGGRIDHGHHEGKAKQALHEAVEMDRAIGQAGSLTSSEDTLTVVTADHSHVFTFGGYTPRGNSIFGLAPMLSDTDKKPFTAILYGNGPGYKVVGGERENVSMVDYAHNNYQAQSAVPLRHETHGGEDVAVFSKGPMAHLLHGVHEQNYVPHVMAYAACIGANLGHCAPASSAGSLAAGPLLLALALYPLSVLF

Hexokinase HKDC1 = biological target: T2, Hexokinase HKDC1 (Homo sapiens, UniProt Q2TB90); assay: activation of HKDC1 glucose phosphorylation – biochemical, W721R variant, dose response (AID 504730); assay type: functional
T2 sequence (Q2TB90 whole entry): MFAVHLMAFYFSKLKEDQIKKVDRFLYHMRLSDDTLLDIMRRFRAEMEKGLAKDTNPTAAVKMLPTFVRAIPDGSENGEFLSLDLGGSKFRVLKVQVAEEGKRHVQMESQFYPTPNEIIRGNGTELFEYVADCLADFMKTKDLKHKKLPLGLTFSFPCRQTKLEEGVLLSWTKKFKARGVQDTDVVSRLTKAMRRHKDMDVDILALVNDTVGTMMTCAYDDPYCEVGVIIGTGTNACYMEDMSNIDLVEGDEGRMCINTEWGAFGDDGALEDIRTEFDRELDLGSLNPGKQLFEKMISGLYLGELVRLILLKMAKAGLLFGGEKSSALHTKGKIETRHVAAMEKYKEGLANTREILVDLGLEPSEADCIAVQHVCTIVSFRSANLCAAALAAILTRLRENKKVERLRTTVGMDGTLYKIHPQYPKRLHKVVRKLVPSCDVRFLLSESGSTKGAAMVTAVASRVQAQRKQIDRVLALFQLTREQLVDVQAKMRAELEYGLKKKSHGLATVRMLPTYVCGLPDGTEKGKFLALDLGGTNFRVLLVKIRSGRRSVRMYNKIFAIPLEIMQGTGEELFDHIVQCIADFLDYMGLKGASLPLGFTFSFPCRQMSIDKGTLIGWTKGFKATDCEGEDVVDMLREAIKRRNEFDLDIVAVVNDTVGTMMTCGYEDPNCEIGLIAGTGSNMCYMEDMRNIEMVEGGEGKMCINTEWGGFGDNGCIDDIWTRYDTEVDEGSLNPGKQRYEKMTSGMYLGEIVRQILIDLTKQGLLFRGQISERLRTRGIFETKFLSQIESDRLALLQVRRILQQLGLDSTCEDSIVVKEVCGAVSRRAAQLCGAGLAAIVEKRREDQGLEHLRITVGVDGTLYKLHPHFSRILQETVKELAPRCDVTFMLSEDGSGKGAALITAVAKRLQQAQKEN

Hexokinase-1 = biological target: T3, Hexokinase-1 (Homo sapiens, UniProt P19367); assay: HK1 enzyme activation by HKDC1 hits – biochemical, selectivity assay for HKDC1 activator project, dose response (AID 504762); assay type: functional
T3 sequence (P19367 whole entry): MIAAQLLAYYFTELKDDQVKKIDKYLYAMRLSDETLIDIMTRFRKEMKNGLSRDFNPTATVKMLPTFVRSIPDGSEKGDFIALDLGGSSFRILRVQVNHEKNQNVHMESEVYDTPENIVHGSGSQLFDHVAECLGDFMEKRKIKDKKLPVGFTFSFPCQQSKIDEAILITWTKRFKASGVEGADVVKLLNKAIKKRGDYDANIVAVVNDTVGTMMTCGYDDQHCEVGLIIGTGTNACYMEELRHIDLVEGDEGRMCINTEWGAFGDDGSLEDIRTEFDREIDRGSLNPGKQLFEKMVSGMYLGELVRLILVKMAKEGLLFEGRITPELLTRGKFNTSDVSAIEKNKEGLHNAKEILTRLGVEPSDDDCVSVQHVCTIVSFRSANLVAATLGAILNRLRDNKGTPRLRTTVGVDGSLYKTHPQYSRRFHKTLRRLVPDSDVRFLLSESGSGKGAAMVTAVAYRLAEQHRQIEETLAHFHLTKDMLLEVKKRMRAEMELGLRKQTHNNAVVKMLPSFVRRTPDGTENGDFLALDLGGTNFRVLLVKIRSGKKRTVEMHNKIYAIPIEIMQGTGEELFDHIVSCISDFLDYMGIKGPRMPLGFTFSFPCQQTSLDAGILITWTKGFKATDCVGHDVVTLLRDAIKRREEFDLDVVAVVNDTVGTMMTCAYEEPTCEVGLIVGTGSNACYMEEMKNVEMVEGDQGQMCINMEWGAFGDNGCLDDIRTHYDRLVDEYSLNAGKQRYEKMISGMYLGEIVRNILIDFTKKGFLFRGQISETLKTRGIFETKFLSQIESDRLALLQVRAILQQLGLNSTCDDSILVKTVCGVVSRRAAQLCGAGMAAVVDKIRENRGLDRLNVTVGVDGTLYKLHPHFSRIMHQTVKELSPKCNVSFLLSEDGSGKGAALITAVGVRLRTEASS

[3] = Luminescence Cell-Based Dose Retest to Confirm Inhibitors of Cancer Stem Cells. [Related pubchem assays (depositor defined):AID2717, AID2721]; assay type: functional; conditions: Homo sapiens
X-box-binding protein 1 = X-box-binding protein 1 (Homo sapiens, UniProt P17861); assay type: functional, Cricetulus griseus;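 further: confirmatory dose-response counter-screen serving a CHOP assay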
X-box-binding protein 1, sequence (P17861 whole entry): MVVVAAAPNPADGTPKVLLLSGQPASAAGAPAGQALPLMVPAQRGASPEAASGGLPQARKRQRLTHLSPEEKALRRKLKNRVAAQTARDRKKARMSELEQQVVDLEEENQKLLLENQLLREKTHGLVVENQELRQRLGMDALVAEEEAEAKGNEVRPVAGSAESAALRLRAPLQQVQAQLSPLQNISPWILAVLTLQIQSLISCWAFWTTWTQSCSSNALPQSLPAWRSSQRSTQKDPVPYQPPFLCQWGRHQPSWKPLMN

INS1 = assay: INS-1E survival protection against cytokine death – cell-based, luminescence, retest, dose response (AID 449756); assay type: functional; conditions: Rattus norvegicus;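 further: cell death triggered by IL-1 beta plus TNF-alpha plus IFN-gamma mixture; protective hits raise ATP signal compared with cytokine alone wells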
[4] = reduction of Shn3 3'UTR-driven luciferase in osteoblasts – cell-based, Clone20 osteoblasts, firefly luciferase, cherry-picked, dose response (AID 624132); assay type: functional;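 further: firefly luciferase luminescence from reporter carrying the Shn3 3'UTR in osteoblasts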
[5] = loss of viability in HepG2 cells – cell-based, CellTiter-Glo, cherry-picked, cytotoxicity control for Shn3 inhibitor project, dose response (AID 624134); assay type: functional
[6] = non-specific 3'UTR reporter inhibition in Clone20-Shn3RL – cell-based, Renilla luciferase, cherry-picked, counter-screen for Shn3 inhibitor project, dose response (AID 624133); assay type: functional
[7] = THP-1 cell cytotoxicity, dose response, cytotoxicity control for non-replicating M. tuberculosis project (AID 489025); assay type: functional
[8] = HepG2 cell cytotoxicity, dose response, cytotoxicity control for non-replicating M. tuberculosis project (AID 489018); assay type: functional; conditions: Mycobacterium tuberculosis
cells = assay type: functional
Bcl-2-related protein A1 = biological target: T4, Bcl-2-related protein A1 (Mus musculus, UniProt Q07440); assay type: functional;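 further: confirmatory dose–response counterscreen on Bfl-1, used to check hits from a UBC13 polyubiquitin inhibitor campaign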
T4 sequence (Q07440 whole entry): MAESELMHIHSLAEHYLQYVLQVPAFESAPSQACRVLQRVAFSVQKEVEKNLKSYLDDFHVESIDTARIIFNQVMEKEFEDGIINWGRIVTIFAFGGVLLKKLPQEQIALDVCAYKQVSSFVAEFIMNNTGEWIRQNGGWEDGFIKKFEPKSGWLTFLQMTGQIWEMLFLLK

[9] = biological target: T5, Ubiquitin-conjugating enzyme E2 N (Homo sapiens, UniProt P61088); assay type: functional
T5 sequence (P61088 whole entry): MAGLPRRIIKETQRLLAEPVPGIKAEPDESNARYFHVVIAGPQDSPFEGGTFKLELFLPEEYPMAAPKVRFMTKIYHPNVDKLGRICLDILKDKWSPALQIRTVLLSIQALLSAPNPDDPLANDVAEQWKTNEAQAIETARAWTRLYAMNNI

[10] = biological target: T5, Ubiquitin-conjugating enzyme E2 N; assay type: functional; remark: listed apart in the source
[11] = luciferase reporter signal suppression in cells – H4 neuroglioma cells, luminescence, dose response (AID 1990); assay type: functional, cell-based
[12] = Luminescence Cell-Based Dose Response HTS to Identify Inhibitors of 5'UTR Stem-Loop Driven Prion Protein mRNA Translation in H4 Neuroglioblastoma Cells. [Related pubchem assays: 1827 (Project Summary), 1813 (Primary HTS)]; assay type: functional
[13] = alpha-synuclein stem-loop luciferase translation blockers – H4 neuroglioma cells, luminescence, confirmation (AID 1988); assay type: functional, cell-based
[14] = microbe, parasite or virus in culture; assay type: functional; conditions: Mycobacterium tuberculosis
[15] = Vero E6 cell cytotoxicity, dose response, cytotoxicity control for non-replicating M. tuberculosis project, secondary assay (AID 492998); assay type: functional, VeroE6; conditions: Vero C1008
Vero = assay: cells; assay type: functional; conditions: Chlorocebus sabaeus
[16] = biological target: T6, Voltage-gated N-type calcium channel alpha-1B subunit/Amyloid beta A4 precursor protein-binding family A member 1 (Homo sapiens, UniProt Q00975+Q02410); assay type: protein assay
T6 sequence (Q00975 whole entry): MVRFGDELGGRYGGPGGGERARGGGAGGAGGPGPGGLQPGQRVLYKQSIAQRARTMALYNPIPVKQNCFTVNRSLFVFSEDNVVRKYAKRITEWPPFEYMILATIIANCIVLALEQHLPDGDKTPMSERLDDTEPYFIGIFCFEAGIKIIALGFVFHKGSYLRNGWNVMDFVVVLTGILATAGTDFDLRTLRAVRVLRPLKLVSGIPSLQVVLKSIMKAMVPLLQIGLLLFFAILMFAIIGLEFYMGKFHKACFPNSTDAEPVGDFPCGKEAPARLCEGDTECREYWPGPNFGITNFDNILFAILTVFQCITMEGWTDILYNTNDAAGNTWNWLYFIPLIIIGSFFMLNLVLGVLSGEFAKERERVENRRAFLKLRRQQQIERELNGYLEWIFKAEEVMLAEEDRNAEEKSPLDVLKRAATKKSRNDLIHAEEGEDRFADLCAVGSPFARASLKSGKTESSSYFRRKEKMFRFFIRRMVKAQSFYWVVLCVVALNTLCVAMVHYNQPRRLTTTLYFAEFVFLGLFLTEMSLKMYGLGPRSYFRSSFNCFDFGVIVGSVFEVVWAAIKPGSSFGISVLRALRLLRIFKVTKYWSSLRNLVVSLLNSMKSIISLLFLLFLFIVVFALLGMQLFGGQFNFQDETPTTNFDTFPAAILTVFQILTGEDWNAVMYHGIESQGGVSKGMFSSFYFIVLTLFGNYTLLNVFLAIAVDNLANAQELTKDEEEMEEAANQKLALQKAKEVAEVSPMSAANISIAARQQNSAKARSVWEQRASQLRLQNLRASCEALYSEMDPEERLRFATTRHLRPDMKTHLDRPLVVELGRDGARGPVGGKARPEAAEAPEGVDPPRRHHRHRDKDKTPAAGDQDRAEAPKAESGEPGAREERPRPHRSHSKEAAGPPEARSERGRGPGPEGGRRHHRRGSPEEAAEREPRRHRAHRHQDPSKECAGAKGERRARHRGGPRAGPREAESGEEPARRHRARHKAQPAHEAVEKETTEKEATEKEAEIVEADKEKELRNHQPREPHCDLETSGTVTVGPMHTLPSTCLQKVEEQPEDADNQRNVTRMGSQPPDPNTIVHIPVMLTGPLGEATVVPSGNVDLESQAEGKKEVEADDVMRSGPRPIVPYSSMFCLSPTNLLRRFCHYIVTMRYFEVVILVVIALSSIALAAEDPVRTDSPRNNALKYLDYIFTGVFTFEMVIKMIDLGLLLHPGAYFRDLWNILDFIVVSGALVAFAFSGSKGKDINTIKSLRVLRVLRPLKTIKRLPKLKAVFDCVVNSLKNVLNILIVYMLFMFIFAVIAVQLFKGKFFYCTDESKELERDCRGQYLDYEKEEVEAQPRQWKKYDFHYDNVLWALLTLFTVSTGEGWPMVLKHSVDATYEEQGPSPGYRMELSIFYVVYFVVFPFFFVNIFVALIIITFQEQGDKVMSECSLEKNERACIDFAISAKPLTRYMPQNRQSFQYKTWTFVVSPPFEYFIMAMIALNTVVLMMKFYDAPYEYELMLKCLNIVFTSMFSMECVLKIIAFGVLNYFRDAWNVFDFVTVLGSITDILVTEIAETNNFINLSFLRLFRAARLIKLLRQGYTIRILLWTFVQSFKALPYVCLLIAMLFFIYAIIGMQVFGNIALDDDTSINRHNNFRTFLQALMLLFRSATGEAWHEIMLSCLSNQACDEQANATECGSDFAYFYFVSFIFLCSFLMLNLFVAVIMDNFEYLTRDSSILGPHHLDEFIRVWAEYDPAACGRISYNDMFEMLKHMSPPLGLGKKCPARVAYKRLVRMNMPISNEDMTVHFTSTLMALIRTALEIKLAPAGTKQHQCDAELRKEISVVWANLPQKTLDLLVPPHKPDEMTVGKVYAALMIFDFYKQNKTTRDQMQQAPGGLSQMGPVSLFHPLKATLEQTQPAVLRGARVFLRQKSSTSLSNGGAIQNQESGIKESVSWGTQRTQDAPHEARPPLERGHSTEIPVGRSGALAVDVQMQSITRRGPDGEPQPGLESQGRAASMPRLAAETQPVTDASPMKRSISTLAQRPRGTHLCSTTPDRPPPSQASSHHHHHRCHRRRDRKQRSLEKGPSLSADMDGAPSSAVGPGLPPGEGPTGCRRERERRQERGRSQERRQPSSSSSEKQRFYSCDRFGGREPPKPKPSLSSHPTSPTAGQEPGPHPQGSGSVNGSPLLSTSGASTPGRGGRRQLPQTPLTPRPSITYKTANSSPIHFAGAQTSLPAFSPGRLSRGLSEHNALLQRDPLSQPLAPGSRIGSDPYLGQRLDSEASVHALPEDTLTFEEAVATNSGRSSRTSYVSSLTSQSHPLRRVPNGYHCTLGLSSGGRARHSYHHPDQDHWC
T6 sequence (Q02410 whole entry): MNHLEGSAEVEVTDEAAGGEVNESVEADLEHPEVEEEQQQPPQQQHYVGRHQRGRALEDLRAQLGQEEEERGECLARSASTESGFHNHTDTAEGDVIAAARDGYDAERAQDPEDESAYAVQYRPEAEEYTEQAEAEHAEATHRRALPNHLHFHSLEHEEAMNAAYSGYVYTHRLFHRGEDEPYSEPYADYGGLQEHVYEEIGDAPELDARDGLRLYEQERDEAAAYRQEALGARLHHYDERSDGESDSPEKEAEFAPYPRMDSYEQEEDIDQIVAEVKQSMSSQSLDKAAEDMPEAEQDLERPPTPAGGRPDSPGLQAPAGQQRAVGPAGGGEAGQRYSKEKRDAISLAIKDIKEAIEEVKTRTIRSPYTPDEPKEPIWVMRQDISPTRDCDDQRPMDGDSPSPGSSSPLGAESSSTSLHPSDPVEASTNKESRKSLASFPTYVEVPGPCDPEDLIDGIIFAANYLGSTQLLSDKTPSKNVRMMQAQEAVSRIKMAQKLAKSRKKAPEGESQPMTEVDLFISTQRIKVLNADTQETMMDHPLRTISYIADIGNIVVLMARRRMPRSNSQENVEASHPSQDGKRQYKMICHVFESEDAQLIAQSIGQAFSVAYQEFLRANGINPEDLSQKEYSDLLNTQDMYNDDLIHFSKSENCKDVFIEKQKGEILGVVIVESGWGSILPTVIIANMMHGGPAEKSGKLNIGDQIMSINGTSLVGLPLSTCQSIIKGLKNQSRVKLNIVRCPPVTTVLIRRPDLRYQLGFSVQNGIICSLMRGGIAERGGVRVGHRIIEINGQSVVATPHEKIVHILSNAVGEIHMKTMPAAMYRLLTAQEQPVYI

[17] = biological target: T7, Mannose-6-phosphate isomerase (Homo sapiens, UniProt P34949); assay: MPI enzyme activity inhibition – biochemical, fluorescence intensity, coupled assay, primary screen (AID 1209)
T7 sequence (P34949 whole entry): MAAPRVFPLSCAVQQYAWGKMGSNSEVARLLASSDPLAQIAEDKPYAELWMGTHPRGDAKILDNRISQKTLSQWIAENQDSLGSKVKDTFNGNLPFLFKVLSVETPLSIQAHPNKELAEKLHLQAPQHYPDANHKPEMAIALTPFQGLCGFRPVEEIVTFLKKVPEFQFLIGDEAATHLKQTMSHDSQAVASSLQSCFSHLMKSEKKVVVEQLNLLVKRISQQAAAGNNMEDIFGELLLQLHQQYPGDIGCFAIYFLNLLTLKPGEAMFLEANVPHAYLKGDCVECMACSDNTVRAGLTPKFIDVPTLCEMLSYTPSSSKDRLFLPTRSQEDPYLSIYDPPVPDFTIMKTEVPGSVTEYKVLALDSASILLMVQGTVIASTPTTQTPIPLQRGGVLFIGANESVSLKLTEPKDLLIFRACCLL

[18] = biological target: T6, Voltage-gated N-type calcium channel alpha-1B subunit/Amyloid beta A4 precursor protein-binding family A member 1; assay type: protein assay; remark: listed apart in the source
[19] = biological target: DNA dC->dU-editing enzyme APOBEC-3A (Homo sapiens, UniProt P31941); assay: A3A deaminase inhibition for selectivity – biochemical, dose response (AID 504722); assay type: functional
DNA dC->dU-editing enzyme APOBEC-3A, sequence (P31941 whole entry): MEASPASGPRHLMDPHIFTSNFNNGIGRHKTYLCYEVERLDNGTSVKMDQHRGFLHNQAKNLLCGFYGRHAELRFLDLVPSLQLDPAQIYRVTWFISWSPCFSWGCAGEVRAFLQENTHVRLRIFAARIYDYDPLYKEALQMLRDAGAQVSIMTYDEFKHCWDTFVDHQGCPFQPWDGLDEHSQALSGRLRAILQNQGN

[20] = biological target: Glucose-6-phosphate 1-dehydrogenase (Homo sapiens, UniProt P11413); assay: inhibition of Homo sapiens G6PD, dose series – biochemical, fluorescence, selectivity assay for P. falciparum G6PD inhibitor project, dose response (AID 504792); assay type: functional
[21] = biological target: Eukaryotic translation initiation factor 4E (Mus musculus, UniProt P63073); assay: blockers of eIF4G binding by eIF4E – biochemical, TR-FRET, dose response (AID 855); assay type: functional;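 further: potency for disrupting eIF4E binding to eIF4GI seen as loss of FRET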
Eukaryotic translation initiation factor 4E, sequence (P63073 whole entry): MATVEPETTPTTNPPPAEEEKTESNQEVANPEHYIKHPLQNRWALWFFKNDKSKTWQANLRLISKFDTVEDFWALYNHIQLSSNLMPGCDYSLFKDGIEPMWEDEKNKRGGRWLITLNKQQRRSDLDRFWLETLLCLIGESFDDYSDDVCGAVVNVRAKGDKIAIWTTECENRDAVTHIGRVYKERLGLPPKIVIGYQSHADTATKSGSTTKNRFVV

[22] = biological target: DNA dC->dU-editing enzyme APOBEC-3G (Homo sapiens, UniProt Q9HC16); assay: Dose Response confirmation of small molecule APOBEC3G DNA Deaminase Inhibitors via a fluorescence-based single-stranded DNA deaminase assay. [Related pubchem assays (depositor defined):AID493012, AID493028]; assay type: functional
[23] = biological target: T8, Low molecular weight phosphotyrosine protein phosphatase (Homo sapiens, UniProt P24666); assay type: functional; conditions: read-out: IC50_Mean;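 further: Dose-response confirmation assay measuring inhibition of LMPTP enzyme activity by fluorescence intensity read-out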
T8 sequence (P24666 whole entry): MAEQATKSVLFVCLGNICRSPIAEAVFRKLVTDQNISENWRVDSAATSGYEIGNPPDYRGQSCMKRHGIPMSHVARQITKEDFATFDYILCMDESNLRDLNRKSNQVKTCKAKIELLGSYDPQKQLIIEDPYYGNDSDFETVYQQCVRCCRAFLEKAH

Cytochrome P450 3A4 = Cytochrome P450 3A4 (Homo sapiens, UniProt P08684);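 further: CYP3A4 tested as one member of a cytochrome P450 panel screen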
Cytochrome P450 3A4, sequence (P08684 whole entry): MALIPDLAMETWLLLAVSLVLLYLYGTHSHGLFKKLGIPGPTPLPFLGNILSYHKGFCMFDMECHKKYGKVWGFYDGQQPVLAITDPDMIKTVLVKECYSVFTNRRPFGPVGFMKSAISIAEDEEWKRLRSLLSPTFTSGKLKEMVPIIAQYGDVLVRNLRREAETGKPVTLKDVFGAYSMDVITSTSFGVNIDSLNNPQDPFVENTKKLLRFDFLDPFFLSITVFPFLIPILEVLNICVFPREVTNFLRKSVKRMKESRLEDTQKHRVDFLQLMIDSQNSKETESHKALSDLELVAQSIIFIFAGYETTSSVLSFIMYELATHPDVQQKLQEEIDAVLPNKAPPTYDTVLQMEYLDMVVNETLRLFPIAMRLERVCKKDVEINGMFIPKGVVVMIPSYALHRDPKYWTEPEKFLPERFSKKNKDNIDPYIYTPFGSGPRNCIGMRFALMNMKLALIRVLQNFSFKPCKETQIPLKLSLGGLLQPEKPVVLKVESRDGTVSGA

Glyceraldehyde-3-phosphate dehydrogenase, sequence (P04406 whole entry): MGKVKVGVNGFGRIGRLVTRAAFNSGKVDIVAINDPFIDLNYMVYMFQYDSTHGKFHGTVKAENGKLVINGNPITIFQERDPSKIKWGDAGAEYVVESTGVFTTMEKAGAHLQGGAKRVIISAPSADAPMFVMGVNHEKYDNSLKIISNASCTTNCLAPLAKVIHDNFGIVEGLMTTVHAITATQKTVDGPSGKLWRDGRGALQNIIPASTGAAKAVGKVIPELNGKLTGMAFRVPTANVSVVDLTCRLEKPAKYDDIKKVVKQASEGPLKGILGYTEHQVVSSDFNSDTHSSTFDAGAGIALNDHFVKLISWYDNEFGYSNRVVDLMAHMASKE

O=C(O)c1cc(-c2ccc(Cl)cc2)n[nH]1
IC50 [1]: > 100 µM (not active)
IC50 [2]: 6.14 µM (active)

COc1cc(Cl)ccc1S(=O)(=O)Nc1ccc2ccccc2c1
IC50 [1]: > 100 µM (not active)
IC50 [2]: > 100 µM (inactive)

Cc1cc(C2=NN=C(Nc3ccc(S(=O)(=O)N4CCOCC4)cc3)SC2)c(C)n1C
EC50 (Hexokinase HKDC1): 24.7 µM (inactive)
EC50 (Hexokinase-1): 46 µM (inactive)

FC(F)(F)c1nnc(-c2ccccc2)nc1Sc1ccc(Cl)cc1
AC50 [3]: 4 µM (active)
Absolute IC50 (XBP1) (X-box-binding protein 1): 10 µM
AC50 (INS1): 9.75 µM (active)
AC50 [4]: 14.7 µM (active)
AC50 [5]: 31.4 µM (active)
AC50 [6]: 21 µM (active)

Cc1nc(-c2ccc(C(F)(F)F)cc2)sc1C(=O)NN
CC50 [7]: 20.7 µM (active)
CC50 [8]: > 20 µM (active)
IC50 (cells): 35.9 µM (active)

C#CCOCCOCCOCCNc1nc(N2CCN(C(=O)CCCCCCCCCCNC(=O)[C@@H](CCSC)n3cc(CCO)nn3)CC2)nc(N2CCN(C(=O)CCCCCCCCCCNC(=O)[C@H](CCCN=C(N)N)n3cc(C[C@@H](C)CC)nn3)CC2)n1
IC50 (Bcl-2-related protein A1): 3.08 µM (active)
IC50 [9]: 5.55 µM (active)
IC50 [10]: 3.03 µM (active)

CCCCCC(=O)N/N=C(\C)c1ccccn1
EC50 [11]: 12.5 µM (active)
EC50 [12]: 7.26 µM (active)
EC50 [13]: 5.13 µM (active)
CC50 [14]: 21.4 µM (active)
CC50 [7]: 11.1 µM (active)
CC50 [8]: > 20 µM (active)
CC50 [15]: 13.3 µM (active)
IC50 (cells): 10.3 µM (active)

COc1cc(OC)c(OC)cc1/C=N/Nc1[nH]cnc2c3ccccc3nc1-2
Absolute IC50 (XBP1) (X-box-binding protein 1): 10 µM
CC50 (Vero): > 25 µM (active)

COc1cc(/N=c2\ssnc2Cl)cc(OC)c1OC
IC50 [16]: 10.8 µM (active)
IC50 [17]: 4.76 µM (active)
IC50 [18]: 5.22 µM (active)
IC50 [19]: > 100 µM (inactive)
IC50 [20]: 69.4 µM (inactive)
EC50 (Hexokinase HKDC1): 56.9 µM (inactive)
IC50 [21]: 20.4 µM (active)
IC50 [22]: 7.2 µM (active)
EC50 (Hexokinase-1): 55.3 µM (inactive)
IC50 (cells): 43.6 µM (active)
IC50 [23]: 80 µM (inactive)
AC50 (Cytochrome P450 3A4): 31.6 µM (inconclusive)
